Reference: US11613527B2, “Enzyme inhibitors” (KalVista Pharmaceuticals Limited, priority 2019, dated 2023)

Legend:
Format in all cases: biochemical
Human plasma kallikrein = Human plasma kallikrein (Homo sapiens (Human), UniProt P03952); assay: Determination of the IC50 for plasma kallikrein (fluorogenic substrate H-DPro-Phe-Arg-AFC); conditions: class symbols A-D, read-out: IC50 (human PKal)
Protocol: The ability of the compounds of formula (I) to inhibit plasma kallikrein may be determined using the following biological assay:
Determination of the IC50 for Plasma Kallikrein
(§1) Plasma kallikrein inhibitory activity in vitro was determined using standard published methods (see e.g. Johansen et al., Int. J. Tiss. Reac. 1986, 8, 185; Shori et al., Biochem. Pharmacol., 1992, 43, 1209; Sturzebecher et al., Biol. Chem. Hoppe-Seyler, 1992, 373, 1025). Human plasma kallikrein (Protogen) was incubated at 25° C. with the fluorogenic substrate H-DPro-Phe-Arg-AFC and various concentrations of the test compound. Residual enzyme activity (initial rate of reaction) was determined by measuring the change in optical absorbance at 410 nm and the IC50 value for the test compound was determined.

Human KLK1 = Human KLK1 (Homo sapiens (Human), UniProt P06870); assay: Determination of the IC50 for KLK1 (fluorogenic substrate H-DVal-Leu-Arg-AFC)
Protocol: Selected compounds were further screened for inhibitory activity against the related enzyme KLK1. The ability of the compounds of formula (I) to inhibit KLK1 may be determined using the following biological assay:
Determination of the IC50 for KLK1
as §1, with “KLK1” for “Plasma kallikrein”, “KLK1 (Callbiochem)” for “plasma kallikrein (Protogen)”, “H-DVal-Leu-Arg-AFC” for “H-DPro-Phe-Arg-AFC”

Human FXIa = Human FXIa (Homo sapiens (Human), UniProt P03951); assay: Determination of the % inhibition for FXIa (fluorogenic substrate Z-Gly-Pro-Arg-AFC; 40 μM or IC50)
Protocol: Selected compounds were further screened for inhibitory activity against the related enzyme FXIa. The ability of the compounds of formula (I) to inhibit FXIa may be determined using the following biological assay:
Determination of the % Inhibition for FXIa
FXIa inhibitory activity in vitro was determined using standard published methods (see e.g. Johansen et al., Int. J. Tiss. Reac. 1986, 8, 185; Shori et al., Biochem. Pharmacol., 1992, 43, 1209; Sturzebecher et al., Biol. Chem. Hoppe-Seyler, 1992, 373, 1025). Human FXIa (Enzyme Research Laboratories) was incubated at 25° C. with the fluorogenic substrate Z-Gly-Pro-Arg-AFC and 40 μM of the test compound (or alternatively at various concentrations of the test compound in order to determine IC50). Residual enzyme activity (initial rate of reaction) was determined by measuring the change in optical absorbance at 410 nm and the IC50 value for the test compound was determined.

Human plasma kallikrein, sequence (P03952 391-638): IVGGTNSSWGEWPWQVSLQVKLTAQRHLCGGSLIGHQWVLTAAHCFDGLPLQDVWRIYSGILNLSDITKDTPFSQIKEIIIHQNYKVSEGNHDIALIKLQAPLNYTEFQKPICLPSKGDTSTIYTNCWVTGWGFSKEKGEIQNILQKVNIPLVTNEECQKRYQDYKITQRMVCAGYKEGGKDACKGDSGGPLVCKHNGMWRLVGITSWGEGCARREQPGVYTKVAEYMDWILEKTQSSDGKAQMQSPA
Human plasma kallikrein, sequence (P03952 20-390 partner): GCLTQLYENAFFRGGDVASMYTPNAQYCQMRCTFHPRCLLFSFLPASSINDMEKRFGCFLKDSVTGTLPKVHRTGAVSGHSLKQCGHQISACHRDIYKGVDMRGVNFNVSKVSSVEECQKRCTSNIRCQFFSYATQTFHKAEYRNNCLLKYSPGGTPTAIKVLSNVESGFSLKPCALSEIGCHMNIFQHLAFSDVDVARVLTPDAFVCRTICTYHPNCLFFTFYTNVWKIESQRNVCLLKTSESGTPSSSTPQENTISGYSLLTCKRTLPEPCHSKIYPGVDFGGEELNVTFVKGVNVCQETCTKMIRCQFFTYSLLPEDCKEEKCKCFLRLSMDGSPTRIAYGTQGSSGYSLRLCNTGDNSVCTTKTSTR
Human FXIa, sequence (P03951 388-625): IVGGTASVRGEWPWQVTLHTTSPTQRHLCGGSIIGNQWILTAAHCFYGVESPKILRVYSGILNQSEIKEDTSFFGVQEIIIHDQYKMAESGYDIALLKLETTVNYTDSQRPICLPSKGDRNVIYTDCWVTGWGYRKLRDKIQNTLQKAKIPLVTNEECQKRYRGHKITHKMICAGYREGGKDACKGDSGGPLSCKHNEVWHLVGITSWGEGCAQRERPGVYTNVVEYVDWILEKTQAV
Human FXIa, sequence (P03951 19-387 partner): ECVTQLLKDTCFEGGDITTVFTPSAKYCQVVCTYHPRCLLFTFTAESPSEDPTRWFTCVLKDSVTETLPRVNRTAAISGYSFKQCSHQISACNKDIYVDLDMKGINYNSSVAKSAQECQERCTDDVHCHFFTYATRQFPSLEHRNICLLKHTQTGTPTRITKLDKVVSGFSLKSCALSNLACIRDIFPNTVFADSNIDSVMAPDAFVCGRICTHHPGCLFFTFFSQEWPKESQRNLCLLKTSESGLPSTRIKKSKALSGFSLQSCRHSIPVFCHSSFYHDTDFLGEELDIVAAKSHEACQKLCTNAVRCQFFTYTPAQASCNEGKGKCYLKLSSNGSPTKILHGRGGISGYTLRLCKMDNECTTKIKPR
Human KLK1, sequence (P06870 25-262): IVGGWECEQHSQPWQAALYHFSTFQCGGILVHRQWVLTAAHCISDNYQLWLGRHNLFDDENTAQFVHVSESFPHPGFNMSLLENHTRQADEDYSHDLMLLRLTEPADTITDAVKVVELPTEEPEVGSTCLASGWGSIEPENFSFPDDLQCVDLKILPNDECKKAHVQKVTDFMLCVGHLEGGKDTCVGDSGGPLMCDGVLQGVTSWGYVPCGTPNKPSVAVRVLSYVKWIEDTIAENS

| SMILES | IC50 (Human plasma kallikrein) [µM] | IC50 (Human KLK1) [µM] | IC50 (Human FXIa) [µM] |
| --- | --- | --- | --- |
| COCc1nn(Cc2ccc3c(c2Cl)CCN(C)C3)cc1C(=O)NCc1c(-n2cc(C)nn2)ccc(OC)c1F [Example 104, 1-[(5-chloro-2-methyl-3,4-dihydro-1H-isoquinolin-6-yl)methyl]-N-{[2-fluoro-3-methoxy-6-(4-methyl-1,2,3-triazol-1-yl)phenyl]methyl}-3-(methoxymethyl)pyrazole-4-carboxamide] | 0.03 to 0.1 | > 40 | > 40 |
| COCc1nn(Cc2ccc3c(c2)CN(C(C)C)CC3)cc1C(=O)NCc1c(-n2cc(C)nn2)ccc(OC)c1F [Example 17, N-{[2-fluoro-3-methoxy-6-(4-methyl-1,2,3-triazol-1-yl)phenyl]methyl}-1-[(2-isopropyl-3,4-dihydro-1H-isoquinolin-7-yl)methyl]-3-(methoxymethyl)pyrazole-4-carboxamide] | < 0.01 | > 40 | > 40 |
| COCc1nn(Cc2ccc3c(c2)CN(C)CC3)cc1C(=O)NCc1c(-n2ncnc2C)ccc(OC)c1F [Example 12, N-{[2-fluoro-3-methoxy-6-(5-methyl-1,2,4-triazol-1-yl)phenyl]methyl}-3-(methoxymethyl)-1-[(2-methyl-3,4-dihydro-1H-isoquinolin-7-yl)methyl]pyrazole-4-carboxamide] | < 0.01 | > 40 | > 40 |
| COCc1nn(Cc2cc3n(n2)CCN(C)C3)cc1C(=O)NCc1c(-n2cc(C)nn2)ccc(OC)c1F [Example 70, N-{[2-fluoro-3-methoxy-6-(4-methyl-1,2,3-triazol-1-yl)phenyl]methyl}-3-(methoxymethyl)-1-({5-methyl-4H,6H,7H-pyrazolo[1,5-a]pyrazin-2-yl}methyl)pyrazole-4-carboxamide] | 0.01 to 0.03 | > 40 | > 40 |
| COc1ccc(-n2cnc(C(F)(F)F)n2)c(CNC(=O)c2cnn(Cc3ccc4c(c3)CN(C(C)C)CC4)c2)c1F [Example 32, N-({2-fluoro-3-methoxy-6-[3-(trifluoromethyl)-1,2,4-triazol-1-yl]phenyl}methyl)-1-[(2-isopropyl-3,4-dihydro-1H-isoquinolin-7-yl)methyl]pyrazole-4-carboxamide] | < 0.01 | > 40 | 19.6 |
| COc1ccc(-n2cc(C)nn2)c(CNC(=O)c2cn(Cc3ccc4c(n3)CN(C)CC4)nc2C(F)(F)F)c1F [Example 131, N-{[2-fluoro-3-methoxy-6-(4-methyl-1H-1,2,3-triazol-1-yl)phenyl]methyl}-1-[(7-methyl-5,6,7,8-tetrahydro-1,7-naphthyridin-2-yl)methyl]-3-(trifluoromethyl)-1H-pyrazole-4-carboxamide] | 0.01 to 0.03 | – | – |
| COCc1nn(Cc2ccc3c(c2)CNCCO3)cc1C(=O)NCc1c(-n2cc(C)nn2)ccc(OC)c1F [Example 110, N-{[2-fluoro-3-methoxy-6-(4-methyl-1,2,3-triazol-1-yl)phenyl]methyl}-3-(methoxymethyl)-1-(2,3,4,5-tetrahydro-1,4-benzoxazepin-7-ylmethyl)pyrazole-4-carboxamide] | 0.1 to 1 | > 40 | > 40 |
| COCc1nn(Cc2ccc3c(c2)C(C)(C)N(C)C3)cc1C(=O)NCc1c(-n2cc(C)nn2)ccc(OC)c1F [Example 124, N-{[2-fluoro-3-methoxy-6-(4-methyl-1,2,3-triazol-1-yl)phenyl]methyl}-3-(methoxymethyl)-1-[(2,3,3-trimethyl-1H-isoindol-5-yl)methyl]pyrazole-4-carboxamide] | 0.03 to 0.1 | > 40 | > 40 |
| COCc1nn(Cc2ccc3c(c2)CN(C)CCO3)cc1C(=O)NCc1c(-n2cc(C)nn2)ccc(OC)c1F [Example 108, N-{[2-fluoro-3-methoxy-6-(4-methyl-1,2,3-triazol-1-yl)phenyl]methyl}-3-(methoxymethyl)-1-[(4-methyl-3,5-dihydro-2H-1,4-benzoxazepin-7-yl)methyl]pyrazole-4-carboxamide] | 0.1 to 1 | > 40 | > 40 |
| COCc1nn(Cc2ccc3c(c2)C(C)(C)NCC3)cc1C(=O)NCc1c(-n2cc(C)nn2)ccc(OC)c1F [Example 128, 1-[(1,1-dimethyl-3,4-dihydro-2H-isoquinolin-7-yl)methyl]-N-{[2-fluoro-3-methoxy-6-(4-methyl-1,2,3-triazol-1-yl)phenyl]methyl}-3-(methoxymethyl)pyrazole-4-carboxamide] | 0.03 to 0.1 | – | – |
| COCc1nn(Cc2ccc3c(c2F)CN(C)CC3)cc1C(=O)NCc1c(-n2cc(C)nn2)ccc(OC)c1F [Example 107, 1-[(8-fluoro-2-methyl-3,4-dihydro-1H-isoquinolin-7-yl)methyl]-N-{[2-fluoro-3-methoxy-6-(4-methyl-1,2,3-triazol-1-yl)phenyl]methyl}-3-(methoxymethyl)pyrazole-4-carboxamide] | < 0.01 | > 40 | > 40 |
| COCc1nn(Cc2ccc3c(c2)CNC3)cc1C(=O)NCc1c(-n2cc(C)nn2)ccc(OC)c1F [Example 53, 1-(2,3-dihydro-1H-isoindol-5-ylmethyl)-N-{[2-fluoro-3-methoxy-6-(4-methyl-1,2,3-triazol-1-yl)phenyl]methyl}-3-(methoxymethyl)pyrazole-4-carboxamide] | 0.03 to 0.1 | > 4 | > 4 |
| COCc1nn(Cc2cc(F)cc3c2CCN(C)C3)cc1C(=O)NCc1c(-n2cc(C)nn2)ccc(OC)c1F [Example 103, 1-[(7-fluoro-2-methyl-3,4-dihydro-1H-isoquinolin-5-yl)methyl]-N-{[2-fluoro-3-methoxy-6-(4-methyl-1,2,3-triazol-1-yl)phenyl]methyl}-3-(methoxymethyl)pyrazole-4-carboxamide] | 0.03 to 0.1 | > 40 | > 40 |
| COCc1nn(Cc2ccc3c(c2)C(C)(C)N(C)CC3)cc1C(=O)NCc1c(-n2cc(C)nn2)ccc(OC)c1F [Example 129, N-{[2-fluoro-3-methoxy-6-(4-methyl-1,2,3-triazol-1-yl)phenyl]methyl}-3-(methoxymethyl)-1-[(1,1,2-trimethyl-3,4-dihydroisoquinolin-7-yl)methyl]pyrazole-4-carboxamide] | 0.01 to 0.03 | – | – |
| COc1ccc(-n2cc(C)nn2)c(CNC(=O)c2cn(Cc3ccc4c(c3)CN(C(C)C)C4)c(C3CC3)n2)c1F [Example 150, 2-cyclopropyl-N-{[2-fluoro-3-methoxy-6-(4-methyl-1,2,3-triazol-1-yl)phenyl]methyl}-1-[(2-isopropyl-1,3-dihydroisoindol-5-yl)methyl]imidazole-4-carboxamide] | 0.01 to 0.03 | > 40 | > 40 |
| COCc1nn(Cc2ccc3c(c2)C2CCC3N2C(C)C)cc1C(=O)NCc1c(-n2cc(C)nn2)ccc(OC)c1F (centres unmarked) [Example 123, N-{[2-fluoro-3-methoxy-6-(4-methyl-1,2,3-triazol-1-yl)phenyl]methyl}-1-({11-isopropyl-11-azatricyclo[6.2.1.0^{2,7}]undeca-2(7),3,5-trien-4-yl}methyl)-3-(methoxymethyl)pyrazole-4-carboxamide] | 0.03 to 0.1 | > 40 | > 40 |
| COc1ccc(-n2cc(C)nn2)c(CNC(=O)c2cn(Cc3cc4n(n3)C3(CC3)CN(C)C4)nc2C(F)F)c1F [Example 82] | < 0.01 | > 40 | 18.2 |
| COCc1nn(Cc2ccc3c(c2)CNCC3(C)C)cc1C(=O)NCc1c(-n2cc(C)nn2)ccc(OC)c1F [Example 130, 1-[(4,4-dimethyl-2,3-dihydro-1H-isoquinolin-7-yl)methyl]-N-{[2-fluoro-3-methoxy-6-(4-methyl-1,2,3-triazol-1-yl)phenyl]methyl}-3-(methoxymethyl)pyrazole-4-carboxamide] | 0.01 to 0.03 | – | – |
| COc1ccc(-n2cc(C)nn2)c(CNC(=O)c2cn(Cc3ccc4c(c3)CN(C)CC4)nc2C(F)F)c1F [Example 33, 3-(difluoromethyl)-N-{[2-fluoro-3-methoxy-6-(4-methyl-1,2,3-triazol-1-yl)phenyl]methyl}-1-[(2-methyl-3,4-dihydro-1H-isoquinolin-7-yl)methyl]pyrazole-4-carboxamide] | < 0.01 | – | – |
